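Where inhibition never reached the appropriate level, the endpoint shown equals the highest concentration tested. Otherwise, values were interpolated linearly from a five-concentration, 48-hour dose response in 96-well plates. GI50 is the concentration that inhibits growth by half. At the TGI there is no net growth.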
Legend:
Experiment in all cases: growth of human tumour cells (NCI), 48 h
LOX IMVI melanoma = system: LOX IMVI melanoma
OVCAR-5 ovarian = system: OVCAR-5 ovarian
HCT-116 colon = system: HCT-116 colon
HT29 colon = system: HT29 colon
SNB-19 CNS = system: SNB-19 CNS
CAKI-1 renal = system: CAKI-1 renal
RPMI-8226 leukemia = system: RPMI-8226 leukemia
OVCAR-3 ovarian = system: OVCAR-3 ovarian
SK-MEL-28 melanoma = system: SK-MEL-28 melanoma
HL-60(TB) leukemia = system: HL-60(TB) leukemia

Row | SMILES | GI50 (LOX IMVI melanoma) [µM] | TGI (LOX IMVI melanoma) [µM] | GI50 (OVCAR-5 ovarian) [µM] | TGI (OVCAR-5 ovarian) [µM] | GI50 (HCT-116 colon) [µM] | TGI (HCT-116 colon) [µM] | GI50 (HT29 colon) [µM] | TGI (HT29 colon) [µM] | GI50 (SNB-19 CNS) [µM] | TGI (SNB-19 CNS) [µM] | GI50 (CAKI-1 renal) [µM] | TGI (CAKI-1 renal) [µM] | GI50 (RPMI-8226 leukemia) [µM] | TGI (RPMI-8226 leukemia) [µM] | GI50 (OVCAR-3 ovarian) [µM] | TGI (OVCAR-3 ovarian) [µM] | GI50 (SK-MEL-28 melanoma) [µM] | TGI (SK-MEL-28 melanoma) [µM] | GI50 (HL-60(TB) leukemia) [µM] | TGI (HL-60(TB) leukemia) [µM]
1 | C[C@@H](CO)NC(=O)c1cc(-c2ccc(Cl)cc2)nn(-c2cnn(C)c2)c1=O | 14.6 | 37.2 | 28.7 | > 100 | 19.1 | > 100 | 19.4 | 76.7 | 26.4 | > 100 | 10.4 | > 100 | 20.5 | > 100 | 45.5 | > 100 | 28.4 | 82.1 | 13.9 | 42.3
2 | Cc1cccc2c3c(sc12)C(c1ccc(F)cc1)C(C#N)=C(N)O3 (stereo not given) | 0.0608 | 5.2 | 0.325 | 12.8 | 0.052 | 3.43 | 0.313 | 8.4 | 0.081 | 12.2 | 0.0466 | 12.5 | 0.048 | 8.31 | 0.0401 | 1.85 | 1.97 | 20.7 | 0.0389 | 0.731
3 | COC(=O)c1cc(OC)c(OC)c(OC)c1-c1cc2c(cc1C=O)OCO2 | – | > 10 | – | > 10 | – | > 10 | – | > 10 | – | > 10 | – | > 10 | – | > 10 | – | > 10 | – | > 10 | – | > 10
4 | CC(=O)OC1=CC2(OC(C)=O)CC(C)(C)C1C1C(=O)C=CC(=O)C12 (stereo not given) | – | > 56.1 | – | > 100 | – | > 89.4 | – | 47.9 | – | > 100 | – | > 100 | – | > 100 | – | > 100 | – | > 100 | – | > 100
5 | COc1ccc(CCN2CCC(CN(C)Cc3cnn(-c4ccccc4)c3)CC2)cc1 | 12.1 | 24.8 | 14.8 | 58.3 | 11.8 | 25.6 | 4.29 | 17.3 | 21.2 | 66 | 5.42 | 19.9 | 13.8 | 42.1 | 20.4 | 52.4 | 2.52 | 7.53 | 20 | 48.4
6 | Cc1cc(O)c(C2=NN(c3ccc(S(N)(=O)=O)cc3)C(/C=C/c3ccccc3)C2)cc1Cl (stereo not given) | 3.94 | 16.2 | 3.18 | 14.7 | 2.4 | 14.6 | 3.73 | 14.7 | 7.84 | 19.9 | 15.3 | 87.7 | 4.95 | 20.6 | 11.5 | 28.4 | 10.9 | 23.8 | 68.3 | > 100
